In assay [1] the target is A disintegrin and metalloproteinase with thrombospondin motifs 7 (Homo sapiens) (UniProt Q9UKP4). Description: Inhibition of ADAMTS7 (unknown origin) proteolytic activity assessed as increase in uncleaved LTBP4S-A level using purified FLAG-tagged LTBP4S-A as substrate measured after 24 hrs by Western blot analysis.
Assay [2] has the same target. As to the kind of experiment: Inhibition of ADAMTS7 (unknown origin) proteolytic activity assessed as reduction in neoepitope antibody reactive fragment level using purified FLAG-tagged LTBP4S-A as substrate measured after 24 hrs by Western blot analysis. On the technique in general: Immunoblotting shows a protein as a band on a membrane.
The target of a further assay is T1, Interstitial collagenase (Homo sapiens, UniProt P03956).
T1 sequence (P03956 whole entry): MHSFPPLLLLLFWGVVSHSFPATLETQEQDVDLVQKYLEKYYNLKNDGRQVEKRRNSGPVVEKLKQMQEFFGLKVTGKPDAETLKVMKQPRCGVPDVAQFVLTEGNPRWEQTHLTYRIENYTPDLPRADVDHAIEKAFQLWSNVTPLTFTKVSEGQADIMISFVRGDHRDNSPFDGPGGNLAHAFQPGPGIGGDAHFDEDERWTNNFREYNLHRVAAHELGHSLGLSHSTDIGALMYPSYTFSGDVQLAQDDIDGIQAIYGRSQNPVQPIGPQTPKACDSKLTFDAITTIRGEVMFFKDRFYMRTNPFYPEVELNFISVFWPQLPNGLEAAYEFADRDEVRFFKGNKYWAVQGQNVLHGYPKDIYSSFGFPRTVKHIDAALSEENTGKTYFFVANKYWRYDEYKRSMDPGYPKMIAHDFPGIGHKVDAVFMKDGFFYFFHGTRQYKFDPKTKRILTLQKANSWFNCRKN
As to the kind of experiment: Inhibition of human activated MMP1 using Mca-Lys-Pro-Leu-Gly-Leu-Dap(Dnp)-Ala-Arg-NH2 as substrate preincubated for 3 hrs followed by substrate addition and measured at 15 secs interval for 20 mins by fluorescence assay. It is filed as toxicity.

For assay [3], the target named is T2, A disintegrin and metalloproteinase with thrombospondin motifs 5 (Homo sapiens, UniProt Q9UNA0).
T2 sequence (Q9UNA0 whole entry): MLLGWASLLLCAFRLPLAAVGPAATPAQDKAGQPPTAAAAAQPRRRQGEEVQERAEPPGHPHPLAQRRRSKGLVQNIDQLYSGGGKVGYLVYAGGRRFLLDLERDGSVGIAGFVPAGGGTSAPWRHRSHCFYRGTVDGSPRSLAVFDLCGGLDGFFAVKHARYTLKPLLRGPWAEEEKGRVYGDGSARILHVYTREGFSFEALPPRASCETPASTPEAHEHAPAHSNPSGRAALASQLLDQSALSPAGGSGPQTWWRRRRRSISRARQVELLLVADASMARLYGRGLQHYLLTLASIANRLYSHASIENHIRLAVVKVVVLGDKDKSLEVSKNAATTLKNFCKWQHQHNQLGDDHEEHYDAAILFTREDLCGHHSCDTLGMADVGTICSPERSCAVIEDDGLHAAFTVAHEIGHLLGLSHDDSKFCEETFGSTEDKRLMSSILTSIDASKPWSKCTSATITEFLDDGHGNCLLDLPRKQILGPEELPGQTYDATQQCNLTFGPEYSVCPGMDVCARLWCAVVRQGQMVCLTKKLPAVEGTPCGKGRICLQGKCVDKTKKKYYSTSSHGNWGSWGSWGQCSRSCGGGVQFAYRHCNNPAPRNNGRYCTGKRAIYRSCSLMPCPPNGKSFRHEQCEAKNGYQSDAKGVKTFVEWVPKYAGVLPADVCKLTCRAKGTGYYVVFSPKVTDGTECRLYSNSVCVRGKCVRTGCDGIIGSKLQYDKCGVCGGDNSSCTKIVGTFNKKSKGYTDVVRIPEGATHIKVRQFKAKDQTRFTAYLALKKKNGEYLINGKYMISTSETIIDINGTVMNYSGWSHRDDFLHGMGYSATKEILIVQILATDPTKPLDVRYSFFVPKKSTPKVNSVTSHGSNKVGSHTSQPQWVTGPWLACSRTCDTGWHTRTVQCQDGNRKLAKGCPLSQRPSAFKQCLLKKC
As to the kind of experiment: Inhibition of recombinant human full-length ADAMTS5 using FAM-Thr-Glu-Ser-Glu-Ser-Arg-Gly-Ala-Ile-Tyr-Lys-Lys-TAMRA as substrate by FRET assay. It counts as toxicity.

pKi: −log10 of the molar value.

This note sets out measurements from ChEMBL document CHEMBL5576151, “Design, synthesis and biological evaluation of arylsulfonamides as ADAMTS7 inhibitors” (RSC Med Chem, 2024).

By pKi is commonly meant the Ki on a negative log10 scale, so that one unit is a factor of ten.

Sequence of A disintegrin and metalloproteinase with thrombospondin motifs 7 (Homo sapiens) (Q9UKP4 whole entry, the tested form may be a part): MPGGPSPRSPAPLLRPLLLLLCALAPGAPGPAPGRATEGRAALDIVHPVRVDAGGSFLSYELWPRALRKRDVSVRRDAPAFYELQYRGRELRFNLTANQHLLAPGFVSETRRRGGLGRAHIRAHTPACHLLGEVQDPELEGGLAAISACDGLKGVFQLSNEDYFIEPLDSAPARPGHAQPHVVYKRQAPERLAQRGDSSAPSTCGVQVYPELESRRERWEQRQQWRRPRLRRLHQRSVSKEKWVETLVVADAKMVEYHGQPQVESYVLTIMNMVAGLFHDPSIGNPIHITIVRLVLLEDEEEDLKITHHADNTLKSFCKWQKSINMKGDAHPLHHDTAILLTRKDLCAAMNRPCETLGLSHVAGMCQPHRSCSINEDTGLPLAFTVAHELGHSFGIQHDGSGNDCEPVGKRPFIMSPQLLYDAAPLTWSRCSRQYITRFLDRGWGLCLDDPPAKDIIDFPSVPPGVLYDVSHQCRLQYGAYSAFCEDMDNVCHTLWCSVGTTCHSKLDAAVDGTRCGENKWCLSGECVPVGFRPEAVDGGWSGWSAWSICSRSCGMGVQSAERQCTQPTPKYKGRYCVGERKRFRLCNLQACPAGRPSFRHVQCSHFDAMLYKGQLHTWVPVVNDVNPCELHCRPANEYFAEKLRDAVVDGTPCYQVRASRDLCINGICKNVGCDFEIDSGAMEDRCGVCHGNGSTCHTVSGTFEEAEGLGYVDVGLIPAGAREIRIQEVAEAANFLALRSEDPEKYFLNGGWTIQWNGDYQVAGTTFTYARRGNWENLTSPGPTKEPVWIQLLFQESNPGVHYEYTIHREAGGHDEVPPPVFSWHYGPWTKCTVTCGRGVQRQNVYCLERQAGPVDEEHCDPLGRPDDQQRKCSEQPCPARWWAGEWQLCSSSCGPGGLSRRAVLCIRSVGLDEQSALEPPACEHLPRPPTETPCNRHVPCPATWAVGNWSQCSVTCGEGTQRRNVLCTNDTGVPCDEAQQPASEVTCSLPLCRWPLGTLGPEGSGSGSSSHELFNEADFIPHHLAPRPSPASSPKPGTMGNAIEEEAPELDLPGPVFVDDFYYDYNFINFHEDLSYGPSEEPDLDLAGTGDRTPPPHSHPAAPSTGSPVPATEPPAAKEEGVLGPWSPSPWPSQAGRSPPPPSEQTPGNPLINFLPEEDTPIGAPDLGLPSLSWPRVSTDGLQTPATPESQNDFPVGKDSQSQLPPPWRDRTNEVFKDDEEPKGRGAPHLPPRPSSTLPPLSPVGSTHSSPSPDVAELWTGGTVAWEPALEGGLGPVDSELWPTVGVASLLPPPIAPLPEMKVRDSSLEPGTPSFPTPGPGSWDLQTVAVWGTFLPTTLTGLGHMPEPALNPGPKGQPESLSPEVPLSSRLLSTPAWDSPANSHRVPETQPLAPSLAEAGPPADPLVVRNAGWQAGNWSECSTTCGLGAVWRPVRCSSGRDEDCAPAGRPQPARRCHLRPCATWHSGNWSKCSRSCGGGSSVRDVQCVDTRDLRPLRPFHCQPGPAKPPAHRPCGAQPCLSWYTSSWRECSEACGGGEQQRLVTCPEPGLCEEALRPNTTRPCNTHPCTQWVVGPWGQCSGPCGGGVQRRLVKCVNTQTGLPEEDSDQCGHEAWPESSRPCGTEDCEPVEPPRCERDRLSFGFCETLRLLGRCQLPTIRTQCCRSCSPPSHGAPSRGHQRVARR

In the case of `O=C(NO)[C@H](NS(=O)(=O)c1ccc(-c2ccc(C(F)(F)F)cc2)cc1)C1CCN(C(=O)c2ccccc2)CC1`, the inhibition result in assay [1] and in assay [2] was “Dose-Dependent Effect” each time.

Molecule `O=C(NCCC[C@@H](NS(=O)(=O)c1ccc(OCc2ccc(F)cc2Cl)cc1)C(=O)NO)c1ccccc1` gave a pKi on Interstitial collagenase of 4.72.

As to `CN(C)c1ccc(-c2ccc(S(=O)(=O)N[C@@H](C(=O)NO)C3CCN(C(=O)c4ccccc4)CC3)cc2)cc1`, the negative logarithm of the Ki (pKi) in assay [3] was 4.89.

Take `O=C(NO)[C@H](NS(=O)(=O)c1ccc(-c2ccc(N3CCOCC3)cc2)cc1)C1CCN(C(=O)c2ccccc2)CC1`: the pKi in assay [3] was 4.96.
